Counter-ions that a name gives are not always drawn.
Test system: HIV
Assay: MT4 Assay (anti-HIV activity)
Format: cell-based
Conditions: Human immunodeficiency virus 1, 96 h, read-out: HIV MT4 Assay IC50, HTLV-1 transformed cell line MT-4, cell titer glo, 10 point dose response curve
Outline: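 IC50 values were fitted to 10-point dose-response series (3-4-fold dilutions, range >1000-fold), normalized to no-compound control. CellTiter-Glo read-out was taken after 96 hours in HTLV-1-transformed MT-4 cells. Cytotoxicity was measured in parallel under identical conditions.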

| Structure (SMILES) | IC50 |
| --- | --- |
| Cc1n[nH]c(C)c1-c1ccc2c(-c3cc(F)c4c(c3C)CCCO4)c([C@H](OC(C)(C)C)C(=O)O)n(C)c(=O)c2c1 (atropisomer, axis not shown; (M)) [Example 196, (2S)(M)-[(1,1-dimethylethyl)oxy][7-(3,5-dimethyl-1H-pyrazol-4-yl)-4-(8-fluoro-5-methyl-3,4-dihydro-2H-chromen-6-yl)-2-methyl-1-oxo-1,2-dihydro-3-isoquinolinyl]ethanoic acid] | 1160 nM |
| Cn1c(C(OC(C)(C)C)C(=O)O)c(-c2ccc3c(c2)CCCO3)c2ccccc2c1=O (centres unmarked) [Example 39, 2-(tert-butoxy)-2-[4-(3,4-dihydro-2H-1-benzopyran-6-yl)-2-methyl-1-oxo-1,2-dihydroisoquinolin-3-yl]acetic acid] | 1880 nM |
| Cc1c(-c2c([C@H](OC(C)(C)C)C(=O)O)n(C)c(=O)c3cc(OCc4ccc(F)cc4F)ccc23)cc(F)c2c1CCCO2 [Example 107, (2S)-2-(tert-butoxy)-2-{7-[(2,4-difluorophenyl)methoxy]-4-(8-fluoro-5-methyl-3,4-dihydro-2H-1-benzopyran-6-yl)-2-methyl-1-oxo-1,2-dihydroisoquinolin-3-yl}acetic acid] | 20 nM |
| Cc1cccc(-c2c(C(OC(C)(C)C)C(=O)O)n(C)c(=O)c3ccccc23)c1 (centres unmarked) [Example 18, 2-(tert-butoxy)-2-[2-methyl-4-(3-methylphenyl)-1-oxo-1,2-dihydroisoquinolin-3-yl]acetic acid] | 3580 nM |
| Cc1ccc(-c2c(C(OC(C)(C)C)C(=O)O)n(C)c(=O)c3cc(CN4CCOCC4)ccc23)cc1C (centres unmarked) [Example 181] | 270 nM |
| Cc1cccc(-c2ccc3c(-c4cc(F)c5c(c4C)CCCO5)c([C@H](OC(C)(C)C)C(=O)O)n(C)c(=O)c3c2)n1 (atropisomer, axis not shown; (M)) [Example 173, (2S)(M)-[(1,1-dimethylethyl)oxy][4-(8-fluoro-5-methyl-3,4-dihydro-2H-chromen-6-yl)-2-methyl-7-(6-methyl-2-pyridinyl)-1-oxo-1,2-dihydro-3-isoquinolinyl]ethanoic acid] | 120 nM |
| Cc1c(-c2c([C@H](OC(C)(C)C)C(=O)O)n(C)c(=O)c3cc(-c4ccccc4F)ccc23)cc(F)c2c1CCCO2 (atropisomer, axis not shown; (M)) [Example 211, (S)(M)-2-(tert-butoxy)-2-(4-(8-fluoro-5-methylchroman-6-yl)-7-(2-fluorophenyl)-2-methyl-1-oxo-1,2-dihydroisoquinolin-3-yl)acetic acid] | 20 nM |
| Cc1c(-c2c([C@H](OC(C)(C)C)C(=O)O)n(C)c(=O)c3cc(CC(C)C)ccc23)cc(F)c2c1CCCO2 (atropisomer, axis not shown; (M)) [Example 174, (2S)(M)-[(1,1-dimethylethyl)oxy][4-(8-fluoro-5-methyl-3,4-dihydro-2H-chromen-6-yl)-2-methyl-7-(2-methylpropyl)-1-oxo-1,2-dihydro-3-isoquinolinyl]ethanoic acid] | 50 nM |
| Cc1ccc2c(-c3ccc4c(c3C)CCCO4)c([C@H](OC(C)(C)C)C(=O)O)n(C)c(=O)c2c1 [Example 115, (2S)-2-(tert-butoxy)-2-[2,7-dimethyl-4-(5-methyl-3,4-dihydro-2H-1-benzopyran-6-yl)-1-oxo-1,2-dihydroisoquinolin-3-yl]acetic acid] | 20 nM |
| Cc1c(-c2c([C@H](OC(C)(C)C)C(=O)O)n(C)c(=O)c3cc(N4CCCCC4)ccc23)cc(F)c2c1CCCO2 (atropisomer, axis not shown; (M)) [Example 166, (2S)(M)-[(1,1-dimethylethyl)oxy][4-(8-fluoro-5-methyl-3,4-dihydro-2H-chromen-6-yl)-2-methyl-1-oxo-7-(1-piperidinyl)-1,2-dihydro-3-isoquinolinyl]ethanoic acid] | 20 nM |
| Cc1c(-c2c(C(OC(C)(C)C)C(=O)O)n(C)c(=O)c3cc(OCc4cncnc4)ccc23)ccc2c1CCCO2 (centres unmarked) [Example 137, 2-(tert-butoxy)-2-[2-methyl-4-(5-methyl-3,4-dihydro-2H-1-benzopyran-6-yl)-1-oxo-7-(pyrimidin-5-ylmethoxy)-1,2-dihydroisoquinolin-3-yl]acetic acid] | 1030 nM |
| Cn1c(C(OC(C)(C)C)C(=O)O)c(-c2cc(Cl)cc(Cl)c2)c2ccccc2c1=O (centres unmarked) [Example 12, 2-(tert-butoxy)-2-[4-(3,5-dichlorophenyl)-2-methyl-1-oxo-1,2-dihydroisoquinolin-3-yl]acetic acid] | 36700 nM |
| CCc1ccc(-c2c(C(OC(C)(C)C)C(=O)O)n(C)c(=O)c3ccccc23)cc1 (centres unmarked) [Example 47, 2-(tert-butoxy)-2-[4-(4-ethylphenyl)-2-methyl-1-oxo-1,2-dihydroisoquinolin-3-yl]acetic acid] | 1850 nM |
| Cn1c(C(OC(C)(C)C)C(=O)O)c(-c2ccc(OC(F)(F)F)cc2)c2ccccc2c1=O (centres unmarked) [Example 5, 2-(tert-butoxy)-2-{2-methyl-1-oxo-4-[4-(trifluoromethoxy)phenyl]-1,2-dihydroisoquinolin-3-yl}acetic acid] | 41700 nM |
| Cc1ccc(-c2c(C(OC(C)(C)C)C(=O)O)n(C)c(=O)c3cc(CN)ccc23)cc1C (centres unmarked) [Example 179, [7-(aminomethyl)-4-(3,4-dimethylphenyl)-2-methyl-1-oxo-1,2-dihydro-3-isoquinolinyl][(1,1-dimethylethyl)oxy]acetic acid-TFA salt] | 50000 nM |
| Cc1occc1-c1ccc2c(-c3cc(F)c4c(c3C)CCCO4)c([C@H](OC(C)(C)C)C(=O)O)n(C)c(=O)c2c1 (atropisomer, axis not shown; (M)) [Example 203, (2S)(M)-[(1,1-dimethylethyl)oxy][4-(8-fluoro-5-methyl-3,4-dihydro-2H-chromen-6-yl)-2-methyl-7-(2-methyl-3-furanyl)-1-oxo-1,2-dihydro-3-isoquinolinyl]ethanoic acid] | 30 nM |
| Cn1c(C(OC(C)(C)C)C(=O)O)c(-c2ccc3c(c2)OCO3)c2ccccc2c1=O (centres unmarked) [Example 51, 2-[4-(2H-1,3-benzodioxol-5-yl)-2-methyl-1-oxo-1,2-dihydroisoquinolin-3-yl]-2-(tert-butoxy)acetic acid] | 5300 nM |
| Cn1c(C(OC(C)(C)C)C(=O)O)c(-c2cc(F)cc(F)c2)c2ccccc2c1=O (centres unmarked) [Example 6, 2-(tert-butoxy)-2-[4-(3,5-difluorophenyl)-2-methyl-1-oxo-1,2-dihydroisoquinolin-3-yl]acetic acid] | 10600 nM |
| Cc1ccc2c(-c3ccc4c(c3)CCCO4)c(C(OC(C)(C)C)C(=O)O)n(C)c(=O)c2c1 (centres unmarked) [Example 58, 2-(tert-butoxy)-2-[4-(3,4-dihydro-2H-1-benzopyran-6-yl)-2,7-dimethyl-1-oxo-1,2-dihydroisoquinolin-3-yl]acetic acid] | 370 nM |
| Cc1c(-c2c(C(OC(C)(C)C)C(=O)O)n(C)c(=O)c3cc(OCc4ccc(C(F)(F)F)cc4)ccc23)ccc2c1CCCO2 (centres unmarked) [Example 132, 2-(tert-butoxy)-2-[2-methyl-4-(5-methyl-3,4-dihydro-2H-1-benzopyran-6-yl)-1-oxo-7-{[4-(trifluoromethyl)phenyl]-methoxy}-1,2-dihydroisoquinolin-3-yl]acetic acid] | 310 nM |
| Cc1noc(C)c1-c1ccc2c(-c3cc(F)c4c(c3C)CCCO4)c([C@H](OC(C)(C)C)C(=O)O)n(C)c(=O)c2c1 (atropisomer, axis not shown; (M)) [Example 207, (2S)(M)-[(1,1-dimethylethyl)oxy][7-(3,5-dimethyl-4-isoxazolyl)-4-(8-fluoro-5-methyl-3,4-dihydro-2H-chromen-6-yl)-2-methyl-1-oxo-1,2-dihydro-3-isoquinolinyl]ethanoic acid] | 80 nM |
| Cc1c(-c2c(C(OC(C)(C)C)C(=O)O)n(C)c(=O)c3cc(OCCF)ccc23)ccc2c1CCCO2 (centres unmarked) [Example 89, 2-(tert-butoxy)-2-[7-(2-fluoroethoxy)-2-methyl-4-(5-methyl-3,4-dihydro-2H-1-benzopyran-6-yl)-1-oxo-1,2-dihydroisoquinolin-3-yl]acetic acid] | 400 nM |
| CCCC(C(=O)O)c1c(-c2ccc(C)cc2C)c2ccccc2c(=O)n1C (centres unmarked) [Example 216, 2-[4-(2,4-dimethylphenyl)-2-methyl-1-oxo-1,2-dihydro-3-isoquinolinyl]pentanoic acid] | 36600 nM |
| Cc1c(-c2c(C(OC(C)(C)C)C(=O)O)n(C)c(=O)c3cc(Cl)ccc23)ccc2c1CCCO2 (centres unmarked) [Example 79, 2-(tert-butoxy)-2-[7-chloro-2-methyl-4-(5-methyl-3,4-dihydro-2H-1-benzopyran-6-yl)-1-oxo-1,2-dihydroisoquinolin-3-yl]acetic acid] | 200 nM |
| Cn1c(C(OC(C)(C)C)C(=O)O)c(-c2ccc3ccccc3c2)c2ccccc2c1=O (centres unmarked) [Example 64, 2-(tert-butoxy)-2-[2-methyl-4-(naphthalen-2-yl)-1-oxo-1,2-dihydroisoquinolin-3-yl]acetic acid] | 8700 nM |
| Cc1c(-c2c(C(OC(C)(C)C)C(=O)O)n(C)c(=O)c3cc(OCCN4CCCC4)ccc23)ccc2c1CCCO2 (centres unmarked) [Example 117, 2-(tert-butoxy)-2-[2-methyl-4-(5-methyl-3,4-dihydro-2H-1-benzopyran-6-yl)-1-oxo-7-[2-(pyrrolidin-1-yl)ethoxy]-1,2-dihydroisoquinolin-3-yl]acetic acid] | 4090 nM |
| Cn1c(C(OC(C)(C)C)C(=O)O)c(-c2ccc3c(c2)OCCO3)c2ccccc2c1=O (centres unmarked) [Example 53, 2-(tert-butoxy)-2-[4-(2,3-dihydro-1,4-benzodioxin-6-yl)-2-methyl-1-oxo-1,2-dihydroisoquinolin-3-yl]acetic acid] | 2460 nM |
| Cn1c(C(OC(C)(C)C)C(=O)O)c(-c2ccc3c(c2)CCO3)c2ccccc2c1=O (centres unmarked) [Example 63, 2-(tert-butoxy)-2-[4-(2,3-dihydro-1-benzofuran-5-yl)-2-methyl-1-oxo-1,2-dihydroisoquinolin-3-yl]acetic acid] | 1690 nM |
| COc1ccc(Cc2ccc3c(-c4ccc(C)c(C)c4)c(C(OC(C)(C)C)C(=O)O)n(C)c(=O)c3c2)cc1 (centres unmarked) [Example 171, [(1,1-dimethylethyl)oxy](4-(3,4-dimethylphenyl)-2-methyl-7-{[4-(methyloxy)phenyl]methyl}-1-oxo-1,2-dihydro-3-isoquinolinyl)acetic acid] | 1300 nM |

Source: US9029391B2 (priority 2011, dated 2015)
